These results are taken from patent publication US20230295152A1 (SENDA BIOSCIENCES, INC., priority 2019, published 2023).

Where two headings read alike, the source gives them in different places.

What all share (format): in vitro ADME
The nature of data set [1]: Hepatocyte Stability Assay, human. As to conditions: for CLint scaled at 1 μM: cryopreserved hepatocytes in suspension, human hepatocytes, read-out: Human hepatocyte clearance.
Data set [2] in a line: Hepatocyte Stability Assay, rat. As to all read-outs here: tested at 1 µM. As to conditions: for Rat hepatocyte clearance: rat hepatocytes. On the procedure: • Preparation of working solutions: 10 mM stock solutions of test compound and positive control were prepared in DMSO. In separate conical tubes, the 10 mM solution of test compound and the positive control were diluted to 100 μM by combining 198 μL of 50% acetonitrile/50% water and 2 μL of 10 mM stock.
Preparation of Hepatocytes: Incubation medium (William's E Medium supplemented with GlutaMAX) and hepatocyte thawing medium were placed in a 37° C. water bath and allowed warming for at least 15 minutes prior to use. A vial of cryopreserved hepatocytes was transferred from storage, ensuring that vials remained at cryogenic temperatures until thawing process ensued. Cells were thawed by placing the vial in a 37° C. water bath and gently shaking the vials for 2 minutes. After thawing was completed, vial was sprayed with 70% ethanol and transferred to a biosafety cabinet. Wide-bore pipette tip were used to transfer hepatocytes into 50 mL conical tube containing thawing medium. The 50 mL conical tube were placed into a centrifuge and spun at 100 g for 10 minutes. Upon completion of spin, thawing medium was aspirated and resuspended hepatocytes in enough incubation medium to yield ˜1.5×10^6 cells/mL. Using an AO/PI Staining, cells were counted and the viable cell density was determined. Cells with poor viability (<75% viability) were determined to be not acceptable for use. Cells were diluted with incubation medium to a working cell density of 0.5×10^6 viable cells/mL.
Procedure for Stability Determination: 198 μL of hepatocytes were pipetted into each wells of a 96-well non-coated plate. The plate was placed in the incubator to allow the hepatocytes to warm for 10 minutes. 2 μL of the 100 μM test compound or positive control solutions were pipetted into respective wells of the 96-well non-coated plate to start the reaction. The plate was returned to the incubator for the designed time points. Well contents was transferred in 25 μL aliquots at time points of 0, 15, 30, 60, 90 and 120 minutes. The aliquots were then mixed with 6 volumes (150 μL) of acetonitrile containing internal standard, IS (100 nM alprazolam, 200 nM caffeine and 100 nM tolbutamide) to terminate the reaction. The mixture was vortex for 5 minutes. Samples were centrifuged for 45 minutes at 3,220 g. An aliquot of 100 μL of the supernatant was diluted by 100 μL ultra-pure water, and the mixture was used for LC/MS/MS analysis. All incubations were performed in duplicate.
Data Analysis: All calculations were carried out using Microsoft Excel. Peak areas were determined from extracted ion chromatograms. In vitro half-life (t1/2) of parent compound was determined by regression analysis of the percent parent disappearance vs. time curve.
The in vitro half-life (in vitro t1/2) was determined from the slope value:
Conversion of the in vitro t1/2 (in min) into the in vitro intrinsic clearance (in vitro CLint, in μL/min/1×10^6 cells) was done using the following equation (mean of duplicate determinations):
V=incubation volume(0.2 mL);
N=number of hepatocytes per well(0.1×10^6 cells).
“+++” indicates a CLint value less than 20 mL/min/Kg, “++” indicates a CLint between 20 and 50 mL/min/Kg, and “+” indicates an CLint above 50 mL/min/Kg.

A further data set has as its target T1, CYP2D6 (Homo sapiens, UniProt P10635).
T1 construct: from tissue; host or cells: human liver microsomes (HLM)
The experiment in a line: CYP Inhibition Assay in human liver microsomes, CYP2D6. Particulars: pH 7.4. On the procedure:
Stock solutions of test compounds were prepared in DMSO at the concentrations of 10 mM. Stock solution was diluted to 2 mM with acetonitrile. The final concentration of test compounds was 10 μM. For the stock solution preparation, if the positive control could not be well dissolved in the mixture of DMSO and acetonitrile (1:4) at the highest concentration, another mixture of acetonitrile and DMSO, the mixture of acetonitrile and H2O or DMSO will be used to dissolve the compound.
The substrate solutions are stored in a −20° C. freezer and warmed to room temperature prior to use.
Preparation of Phosphate Buffer (100 mmol/L, pH 7.4): To prepare the Solution A, 7.098 g of disodium hydrogen phosphate were weighed out and added into 500 mL of pure water, then sonicated to dissolve the content. To prepare the Solution B, 3.400 g of potassium dihydrogen phosphate were weighed out and added into 250 mL of pure water, then sonicated to dissolve the content. Solution A was placed on a stirrer and slowly Solution B was added into Solution A until the pH reached 7.4. Preparation of 10 mmol/L NADPH Solution: NADPH was dissolved at 8.334 mg/mL in phosphate buffer; the solution was freshly prepared prior to use.
The master solution was prepared according to Table 45. The incubation was carried out in 96 deep well plates. The following volumes were dispensed into each well of the incubation plate: 179 μL of the substrate and HLM mixture in phosphate buffer, 1 μL of the compound working solution, or vehicle (mixture of DMSO and acetonitrile (1:4)). The incubation plate was placed into the water bath and pre-warmed at 37° C. for 15 minutes before the reactions was started by the addition of 20 μL of 10 mmol/L NADPH solution in phosphate buffer. After the addition of NADPH, the incubation plate was incubated at 37° C. for corresponding time. The assay was performed in duplicate.
The reaction was quenched by the addition of 1.5 volume (300 μL) of cold acetonitrile containing 3% formic acid and internal standards (200 nM Labetalol, 200 nM Alprazolam and 200 nM tolbutamide). The plate was centrifuged at 3,220 g for 40 minutes. 100 μL of the supernatant was transferred to a new plate. The supernatant was diluted with 100 μL pure water. The samples were mixed well and analyzed using UPLC/MS/MS.
Data Analysis: The automatic peak integration areas are checked for all the samples. The Analyte Peak Area and Internal Standard Peak Area are exported into excel spreadsheet. The inhibition of each P450 enzyme in human liver microsomes is measured as the percentage decrease in the activity of marker metabolite formation compared to non-inhibited controls (=100% activity).
The percentage of remaining activity was calculated as follows:
Area Ratio=Peak Area Analyte/Peak Area Internal Standard Remaining Activity (%)=Area Ratio test compound/Area Ratio vehicle*100% Inhibition %=100-Remaining Activity (%)

Data set [3] in a line: Hepatocyte Stability Assay, human. Particulars: for CLint scaled: human, plated hepatocytes.
Where [4] appears, read: plated hepatocyte, Pharmaron assay, read-out: Human hepatocyte clearance Plated hepatocyte Pharmaron assay.
Where [5] appears, read: plated hepatocyte, Alliance assay, read-out: Human hepatocyte clearance Plated hepatocyte Alliance assay.

T1 sequence (P10635 whole entry): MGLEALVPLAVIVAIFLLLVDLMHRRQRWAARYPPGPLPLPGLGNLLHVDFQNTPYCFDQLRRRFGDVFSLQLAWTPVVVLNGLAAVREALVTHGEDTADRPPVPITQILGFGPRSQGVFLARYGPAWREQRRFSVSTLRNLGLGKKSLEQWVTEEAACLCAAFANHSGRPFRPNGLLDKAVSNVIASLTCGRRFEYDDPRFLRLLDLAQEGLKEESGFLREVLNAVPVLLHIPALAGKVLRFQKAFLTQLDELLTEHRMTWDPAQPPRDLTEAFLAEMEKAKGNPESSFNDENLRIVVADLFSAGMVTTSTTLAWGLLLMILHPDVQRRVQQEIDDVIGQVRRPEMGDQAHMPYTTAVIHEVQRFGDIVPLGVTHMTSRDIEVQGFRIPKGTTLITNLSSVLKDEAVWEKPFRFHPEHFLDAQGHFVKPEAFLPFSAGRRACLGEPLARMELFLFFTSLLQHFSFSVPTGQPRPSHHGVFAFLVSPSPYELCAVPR

One may read the inhibition as the percentage by which the read-out fell short of the control. `CC(C)(O)Cn1cnc2c(-c3cccnc3)nc(-c3ccc(C(F)(F)F)cc3)cc2c1=O` [Compound 16]: in data set [1], the CLint scaled at 1 μM is < 20 mL/min/kg. The Rat hepatocyte clearance result in data set [2] is “+++ (“+++” indicates a CLint value less than 20 mL/min/Kg)”. On CYP2D6, this molecule yielded an inhibition at 10 µM of 15.6%. Moreover, the CLint scaled in data set [3] (setting [4]) is < 20 mL/min/kg.

For the molecule `C[C@@H](CO)n1cnc2c(-c3cccnc3)nc(-c3ccc(C(F)(F)F)nc3)cc2c1=O` [Compound 12], the CLint scaled at 1 μM in data set [1] was < 20 mL/min/kg. Further, in data set [2], the Rat hepatocyte clearance entry was “+++ (“+++” indicates a CLint value less than 20 mL/min/Kg)”. On CYP2D6, the inhibition at 10 µM was determined as 8.45%. Moreover, the CLint scaled in data set [3] (setting [5]) was < 20 mL/min/kg.

Take `CC(C)(O)Cn1cnc2c(-c3cccnc3)nc(-c3ccc(C(F)(F)F)nc3)cc2c1=O` [Compound 9]: the CLint scaled at 1 μM in data set [1] was < 20 mL/min/kg. Moreover, in data set [1] (suspension human hepatocytes), the “Human hepatocyte intrinsic clearance, suspension Hheps ClInt (% Qh)” value is <31 % Qh. In addition, the Rat hepatocyte clearance result in data set [2] was “+++ (“+++” indicates a CLint value less than 20 mL/min/Kg)”. In addition, in data set [2] (suspension rat hepatocytes), the “Suspension Rat heps Clint (% Qh)” value was < 24 % Qh. In addition, on CYP2D6, the inhibition at 10 µM was 7.19%. Also, the CLint scaled in data set [3] (setting [4]) is < 20 mL/min/kg. Also, in data set [3] (plated hepatocyte, Alliance assay), the “Human hepatocyte clearance Plated hepatocyte Alliance assay” value is listed as “+++ (“+++” indicates a CLint value less than 20 mL/min/Kg)”. Besides, in data set [3] (plated human hepatocytes), the “Plated heps (% Qh)” value is on record as 2.1 % Qh. The “Plated heps (% Qh), All” value in data set [3] (plated human hepatocytes, value in brackets marked "All") worked out at 0.6 % Qh.

As for `C[C@@H](CO)n1cnc2c(-c3cnn(C)c3)nc(-c3ccc(C(F)(F)F)nc3)cc2c1=O` [Compound 68], in data set [1], the CLint scaled at 1 μM was < 20 mL/min/kg. Also, the Rat hepatocyte clearance result in data set [2] is “+++ (“+++” indicates a CLint value less than 20 mL/min/Kg)”. Moreover, testing at 10 µM at CYP2D6 gave an inhibition of 10.9%. Also, in data set [3] (setting [5]), the CLint scaled is < 20 mL/min/kg.

Turning to `C[C@H](n1cnc2c(-c3cnn(C)c3)nc(-c3ccc(Cl)cc3)cc2c1=O)C(C)(C)O` [Compound 30], the CLint scaled at 1 μM in data set [1] is < 20 mL/min/kg. The Rat hepatocyte clearance entry in data set [2] is “++ (“++” indicates a CLint between 20 and 50 mL/min/Kg)”. In addition, testing at 10 µM on CYP2D6 gave an inhibition of 11.2%. Also, the CLint scaled in data set [3] (setting [4]) is < 20 mL/min/kg.
